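Five compound concentrations were applied to cells in 96-well plates for 48 hours; endpoints were derived by simple linear interpolation of the resulting dose-response curve. At the GI50, growth is halved. TGI is the concentration that stops growth completely.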
Assays:
Experiment in all cases: growth of human tumour cells (NCI), 48 h
786-0 renal = test system: 786-0 renal
A498 renal = test system: A498 renal
A549 NSCLC = test system: A549 NSCLC
ACHN renal = test system: ACHN renal
BT-549 breast = test system: BT-549 breast
CAKI-1 renal = test system: CAKI-1 renal
CCRF-CEM leukemia = test system: CCRF-CEM leukemia
COLO 205 colon = test system: COLO 205 colon
DU-145 prostate = test system: DU-145 prostate
HCC-2998 colon = test system: HCC-2998 colon
HCT-116 colon = test system: HCT-116 colon
HCT-15 colon = test system: HCT-15 colon
HL-60(TB) leukemia = test system: HL-60(TB) leukemia
HOP-62 NSCLC = test system: HOP-62 NSCLC
HOP-92 NSCLC = test system: HOP-92 NSCLC
HS 578T breast = test system: HS 578T breast
HT29 colon = test system: HT29 colon
IGROV1 ovarian = test system: IGROV1 ovarian
K-562 leukemia = test system: K-562 leukemia
KM12 colon = test system: KM12 colon
LOX IMVI melanoma = test system: LOX IMVI melanoma
M14 melanoma = test system: M14 melanoma
MALME-3M melanoma = test system: MALME-3M melanoma
MCF7 breast = test system: MCF7 breast
MDA-MB-231 breast = test system: MDA-MB-231 breast
MDA-MB-435 = test system: MDA-MB-435
MOLT-4 leukemia = test system: MOLT-4 leukemia
NCI-H226 lung = test system: NCI-H226 lung
NCI-H23 lung = test system: NCI-H23 lung
NCI-H460 lung = test system: NCI-H460 lung
NCI-H522 lung = test system: NCI-H522 lung
NCI/ADR-RES ovarian = test system: NCI/ADR-RES ovarian
OVCAR-3 ovarian = test system: OVCAR-3 ovarian
OVCAR-4 ovarian = test system: OVCAR-4 ovarian
OVCAR-5 ovarian = test system: OVCAR-5 ovarian
OVCAR-8 ovarian = test system: OVCAR-8 ovarian
PC-3 prostate = test system: PC-3 prostate
RPMI-8226 leukemia = test system: RPMI-8226 leukemia
RXF 393 renal = test system: RXF 393 renal
SF-268 CNS = test system: SF-268 CNS
SF-295 CNS = test system: SF-295 CNS
SF-539 CNS = test system: SF-539 CNS
SK-MEL-2 melanoma = test system: SK-MEL-2 melanoma
SK-MEL-28 melanoma = test system: SK-MEL-28 melanoma
SK-MEL-5 melanoma = test system: SK-MEL-5 melanoma
SK-OV-3 ovarian = test system: SK-OV-3 ovarian
SN12C renal = test system: SN12C renal
SNB-19 CNS = test system: SNB-19 CNS
SNB-75 CNS = test system: SNB-75 CNS
SR leukemia = test system: SR leukemia
SW-620 colon = test system: SW-620 colon
T-47D breast = test system: T-47D breast
TK-10 renal = test system: TK-10 renal
U251 CNS = test system: U251 CNS
UACC-257 melanoma = test system: UACC-257 melanoma
UACC-62 melanoma = test system: UACC-62 melanoma
UO-31 renal = test system: UO-31 renal

## O=C(Nc1cccc(-n2cc(-c3ccncc3)c(-c3ccc(Cl)c(O)c3)n2)c1)Nc1cc(C(F)(F)F)cc(C(F)(F)F)c1
786-0 renal
  GI50: 1020 nM
  TGI: 2350 nM
A498 renal
  GI50: 595 nM
  TGI: 2300 nM
A549 NSCLC
  GI50: 313 nM
  TGI: 1380 nM
ACHN renal
  GI50: 669 nM
  TGI: 4200 nM
BT-549 breast
  GI50: 1050 nM
  TGI: 2050 nM
CAKI-1 renal
  GI50: 867 nM
  TGI: 2880 nM
CCRF-CEM leukemia
  GI50: 789 nM
  TGI: 6780 nM
COLO 205 colon
  GI50: 896 nM
  TGI: 1710 nM
DU-145 prostate
  GI50: 963 nM
  TGI: 2940 nM
HCC-2998 colon
  GI50: 977 nM
  TGI: 2040 nM
HCT-116 colon
  GI50: 487 nM
  TGI: 1240 nM
HCT-15 colon
  GI50: 591 nM
  TGI: 3010 nM
HL-60(TB) leukemia
  GI50: 1130 nM
  TGI: 6630 nM
HOP-62 NSCLC
  GI50: 902 nM
  TGI: 1810 nM
HOP-92 NSCLC
  GI50: 196 nM
  TGI: 1150 nM
HS 578T breast
  GI50: 1200 nM
  TGI: 4010 nM
HT29 colon
  GI50: 711 nM
  TGI: 1640 nM
IGROV1 ovarian
  GI50: 795 nM
  TGI: 2550 nM
K-562 leukemia
  GI50: 520 nM
  TGI: 2980 nM
KM12 colon
  GI50: 511 nM
  TGI: 1350 nM
LOX IMVI melanoma
  GI50: 712 nM
  TGI: 1400 nM
M14 melanoma
  GI50: 692 nM
  TGI: 1900 nM
MALME-3M melanoma
  GI50: 831 nM
  TGI: 2240 nM
MCF7 breast
  GI50: 666 nM
  TGI: 4620 nM
MDA-MB-231 breast
  GI50: 768 nM
  TGI: 1660 nM
MDA-MB-435
  GI50: 829 nM
  TGI: 2070 nM
MOLT-4 leukemia
  GI50: 1150 nM
  TGI: 4360 nM
NCI-H226 lung
  GI50: 1200 nM
  TGI: 5140 nM
NCI-H23 lung
  GI50: 998 nM
  TGI: 2860 nM
NCI-H460 lung
  GI50: 391 nM
  TGI: 1360 nM
NCI-H522 lung
  GI50: 707 nM
  TGI: 2100 nM
NCI/ADR-RES ovarian
  GI50: 1230 nM
  TGI: 5670 nM
OVCAR-3 ovarian
  GI50: 345 nM
  TGI: 1110 nM
OVCAR-4 ovarian
  GI50: 795 nM
  TGI: 3280 nM
OVCAR-5 ovarian
  GI50: 846 nM
  TGI: 1880 nM
OVCAR-8 ovarian
  GI50: 563 nM
  TGI: 5920 nM
PC-3 prostate
  GI50: 261 nM
  TGI: 2240 nM
RPMI-8226 leukemia
  GI50: 434 nM
  TGI: 10600 nM
RXF 393 renal
  GI50: 935 nM
  TGI: 2210 nM
SF-268 CNS
  GI50: 846 nM
  TGI: 2290 nM
SF-295 CNS
  GI50: 618 nM
  TGI: 1650 nM
SF-539 CNS
  GI50: 777 nM
  TGI: 1530 nM
SK-MEL-2 melanoma
  GI50: 999 nM
  TGI: 2180 nM
SK-MEL-28 melanoma
  GI50: 807 nM
  TGI: 1610 nM
SK-MEL-5 melanoma
  GI50: 604 nM
  TGI: 1260 nM
SK-OV-3 ovarian
  GI50: 1180 nM
  TGI: 2830 nM
SN12C renal
  GI50: 852 nM
  TGI: 3140 nM
SNB-19 CNS
  GI50: 979 nM
  TGI: 6650 nM
SNB-75 CNS
  GI50: 896 nM
  TGI: 2300 nM
SR leukemia
  GI50: 876 nM
  TGI: 3220 nM
SW-620 colon
  GI50: 1180 nM
  TGI: 3730 nM
T-47D breast
  GI50: 1550 nM
  TGI: 8930 nM
TK-10 renal
  GI50: 843 nM
  TGI: 2750 nM
U251 CNS
  GI50: 484 nM
  TGI: 1150 nM
UACC-257 melanoma
  GI50: 890 nM
  TGI: 2240 nM
UACC-62 melanoma
  GI50: 766 nM
  TGI: 1960 nM
UO-31 renal
  GI50: 676 nM
  TGI: 1770 nM
